Data taken from patent publication EP4685149A1, “NOVEL COMPOUND AS ENDOTHELIAL TO MESENCHYMAL TRANSITION (ENDMT) INHIBITOR, AND PHARMACEUTICAL COMPOSITION COMPRISING SAME” (Korea Institute of Radiological & Medical Sciences, priority 2023, dated 2024).
Where two headings read alike, the source gives them in different places.

Tested on: human vascular endothelial cell lines
Test: Inhibition of radiation-induced endothelial cell transition (EndMT), phalloidin immunofluorescence staining
Assay type: cell-based
Settings: Homo sapiens, Endothelial cell, light or radiation study, 10 uM test substance 1 hour before 10 Gy irradiation, 72 hours after irradiation, relative ratio with IR group (10 Gy alone) as 100%
Procedure: Test substances (Examples 1 to 45) were treated with a 10 mM DMSO solution at a ratio of 1 µL per 1 mL of cell culture medium to a final concentration of 10 uM, and the test substances were treated 1 hour before irradiation on human vascular endothelial cell lines (Promocell, Germany), and then, it was irradiated at an intensity of 10 Gy. 72 hours after irradiation, the human vascular endothelial cell lines were fixed with 10% formalin, and the experiment was conducted according to the manufacturer's method using phalloidin (Invitrogen, USA) to confirm the cytoskeleton filaments that increase during fibrosis. Phalloidin is a protein that binds to the actin of cytoskeleton filaments, and phalloidin conjugated with FITC fluorescent substance made the cytoskeleton filaments appear green when observed under a microscope.
After treatment with the test substance, the area, length and density of phalloidin were measured by using a confocal microscope, and the relative ratio was expressed with the irradiated group (IR group) that was irradiated with 10 Gy alone as 100% (Table 1).

Measured: activity at 10 µM

O[C@@H]1[C@H](O)CS[C@H]1n1cnc2c(N[C@@H]3CCc4ccccc43)ncnc21 [Example 45, (2R,3R,4S)-2-(6-(((R)-2,3-dihydro-1H-inden-1-yl)amino)-9H-purin-9-yl)tetrahydrothiophene-3,4-diol]
> 80%: read-out: Palloidin Area | read-out: Palloidin Intensity | read-out: Palloidin Length
